We go through two molecules from paper PMC10144514, “Imageological/Structural Study regarding the Improved Pharmacokinetics by ^68Ga-Labeled PEGylated PSMA Multimer in Prostate Cancer” (Pharmaceuticals, 2023).

In data set [1] the test system is PC-3 PIP tumor. As to the kind of experiment: Micro animal PET/CT and SPECT/CT imaging of PC-3 PIP tumor-bearing mice. It counts as in vivo. On the procedure: PC-3 PIP cells at the logarithmic phase were collected after trypsinization and re-suspended to 5 × 10^7/mL with serum-free medium after removing the supernatant. Mice (6 weeks) were subcutaneously injected with 200 μL of cell suspension, and utilized for small animal PET/CT imaging, SPECT/CT imaging, and biodistribution analysis when tumor volume was ≧100 mm^3. All animal experiments were conducted with the approval of The Southwest Medical University Animal Ethics Committee. Tumor-bearing mice (n = 3) were intravenously injected with 0.1 mL (80μCi) of freshly prepared ^68Ga/^177Lu-labeled PSMA ligands. PET/CT imaging was performed at 0.5/1/2/5 h after injection, and SPECT/CT imaging was performed at 6/24/48 h after injection. The acquired PET/CT and SPECT/CT data were re-constructed by OSEM (ordered subsets expectation maximization).

In a further data set the target is T1, PSMA (PC-3 PIP cells) (Homo sapiens, UniProt Q04609).
T1 construct: expressed in transfected cells; host or cells: PC-3 PIP cells (PC-3 stably expressing PSMA; gift from Professor Chen, National University of Singapore)
Briefly: Competitive binding IC50 against [^68Ga]Ga-PSMA-11 in PC-3 PIP cells. The note with it: competition with [^68Ga]Ga-PSMA-11, 1 h. Here is the method:
PC-3 PIP cells were seeded in 96-well plates in triplicate and cultured to a density of 5* × 10^5 cells per well. [^68Ga]Ga-PSMA-11 was added into wells after serum-starved cell culture (1 μCi/well, ≈171 nmol/L), after which different PBS-diluted competitive ligands were added in wells and cultured for another hour. Then cells were washed with cold PBS twice removing the supernatant. Cells were collected and transferred to test tubes for counting by the γ-counter. IC50 values were analyzed and confirmed by nonlinear regression on GraphPad Prism Software.

A short description of data set [2]: In vitro stability of radiotracers in PBS (radiochemical purity by HPLC). It counts as physicochemical. The settings on record: incubated in PBS at 37 °C for 2 h. Here is the method: (§1) All solvents and reagents were purchased from Sigma-Aldrich (Shanghai, China) and Shanghai yuanye Bio-Technology (Shanghai, China). DOTA-(1P-PEG4), DOTA-(2P-PEG0), DOTA(DOTA-(2P-PEG4), and (DOTA-(2P-PEG4)2 were synthesized by Bidepharm (Shanghai, China), and characterized by HPLC and mass spectrometry. Radio-HPLC analyses of the radiotracers were carried out using C18 column (5 µm, 4.6 × 250 mm, ZORBAX Eclipse Plus, Agilent, Milford, MA, USA), and analytical grade solvent by solvent A (0.1% trifluoroacetic acid (TFA) in water) and solvent B (0.1% TFA in acetonitrile). A ^68Ge/^68Ga generator was purchased from ITM Medical Isotopes (Munich, Germany). The γ count was measured by a CAPRAC-t γ counter containing a NaI crystal (CAPINTEC, Ramsey, NJ, USA). All in vitro experiments regarding PSMA and the determination of radiotracers’ stability were performed in triplicate to ensure reproducibility.
(§2) […] was eluted from a ^68Ge/^68Ga generator with 0.05M HCl (≈200 MBq/mL). […]
(§3) A total of four kinds of PSMA-related ligands were designed and synthesized. The radiochemical purity of these four ^68Ga/^177Lu-labeled compounds was detected by HPLC (Figure 1) and thin-layer chromatography (Figure S5). […]

Data set [3] in a line: In vitro stability of radiotracers in FBS (radiochemical purity by HPLC). The note with it: incubated in FBS at 37 °C for 2 h. It counts as in vitro ADME. On the procedure: as §1, §2, §3
Data set [4] concerns PC-3 PIP tumor. As to the kind of experiment: Biodistribution in PC-3 PIP tumor-bearing mice. It counts as in vivo. The settings on record: 2 h p.i. Here is the method:
PC-3 PIP cells at the logarithmic phase were collected after trypsinization and re-suspended to 5 × 10^7/mL with serum-free medium after removing the supernatant. Mice (6 weeks) were subcutaneously injected with 200 μL of cell suspension, and utilized for small animal PET/CT imaging, SPECT/CT imaging, and biodistribution analysis when tumor volume was ≧100 mm^3. All animal experiments were conducted with the approval of The Southwest Medical University Animal Ethics Committee.
PC-3 PIP tumor-bearing mice (n > 3) were divided into four groups and respectively injected with 0.1 mL (70μCi) of [^68Ga]Ga-DOTA-(1P-PEG4), [^68Ga]Ga-DOTA-(2P-PEG0), [^68Ga]Ga-DOTA-(2P-PEG4), and [^68Ga]Ga-DOTA-(2P-PEG4)2 through the caudal vein. Mice were executed at 30 min/60 min/120 min after injection. Heart, blood, lung, liver, stomach, spleen, kidney, muscle, intestine, bone, salivary gland, and tumor were collected and detected by the γ-counter. The fitted curve was calculated on the basis of standard diluted samples of the initial dosage, and then the percentage of injected dose per gram of tissue (ID%/g) was calculated.

Data set [5] is described as follows: Lipophilicity determination (n-octanol/PBS partition). Type of data set: physicochemical. The note with it: ^68Ga-labeled ligand. On the procedure:
Nuclide-labeled ligand (20 μL, ≈50 μCi), PBS (480 μL), and saturated n-octanol (500 μL) were added in a 1 mL EP tube, followed by vortex. Then the mixture was centrifuged at a low temperature (−5 °C) for 10 min until the mixture was separated into the upper and the lower layers. Liquids in the two phases were transferred into EP tubes and measured by the γ-counter. The calculation of the LogP value was based on the following equation: LogP = Lg [(counting of the organic phase − background counting)/(counting of the aqueous phase − background counting)]

The target of the next data set is T2, human albumin (Homo sapiens, UniProt P02768).
T2 construct: purchased Sigma-Aldrich (Shanghai, China) or Shanghai yuanye Bio-Technology (general reagents statement; not tied to albumin)
As to the kind of experiment: In vitro determination of albumin binding (ultrafiltration). Type of data set: in vitro ADME. The settings on record: human serum albumin 20 mg/mL, 37 °C, ^68Ga-labeled. Here is the method:
The albumin-binding rate of each ligand was measured by the γ-counter. ^68Ga-labeled PSMA ligand (≈50 μCi) was added into the human albumin solution (20 mg/mL). The mixture was incubated in a water bath (37 °C) for 30 min and 120 min, followed by ultrafiltration centrifugation for 5 min (10 kD, 10,000 rpm). The compound activities of the uncombined albumin or those retained on the filter membrane were measured by the γ counter, according to which the percentage of serum albumin binding activity (retained on the filter membrane) to total activity was calculated.
The calculation was based on the following equation: (counting of albumin retained on membrane − background counting)/(counting of albumin retained on membrane + counting of filtered liquid − 2* background counting) × 100%, and the average of three sets of data was taken as the final result.

Another data set has as its system PC-3 PIP cells. As to the kind of experiment: Cellular uptake and 2-PMPA blocking in PC-3 PIP cells. Type of data set: cell-based. Here is the method: Cellular experiments in this study were performed in the PC-3 PIP cell line. PC-3 PIP, a PCa cell line with stably high-expressed PSMA [28], was a gift from Professor Chen from the National University of Singapore. Cells were cultured in ATCC 1640 medium with 10% of FBS, L-glutamine, and antibiotic (37 °C, 5% CO2).
PC-3 PIP cells were cultured in ATCC 1640 medium containing 10% FBS. When cultured to 70–80% confluency, cells were collected and seeded in a 24-well plate. After culturing overnight (37 °C, 5% CO2), the culture medium was replaced by serum-free ATCC 1640 medium (serum-starved cell culture) for 0.5 h. Then nuclide-labeled compounds were added into wells (50 µL, 1 μCi/well) with gentle shakes to ensure they were well distributed. After incubating for 30 min/60 min/120 min, cells at each time point were digested by NaOH and measured by the γ-counter to calculate the uptake rate (n ≥ 3). Cells were co-incubated with glycine (pH = 2.8) for 1 min, and then the procedure above was repeated after dissolving in 1 M NaOH (procedure for internalization). Cells were incubated with PSMA inhibitor (2-PMPA) for blocking assays for 15 min before adding the labeled ligands.

T2 sequence (P02768 25-609): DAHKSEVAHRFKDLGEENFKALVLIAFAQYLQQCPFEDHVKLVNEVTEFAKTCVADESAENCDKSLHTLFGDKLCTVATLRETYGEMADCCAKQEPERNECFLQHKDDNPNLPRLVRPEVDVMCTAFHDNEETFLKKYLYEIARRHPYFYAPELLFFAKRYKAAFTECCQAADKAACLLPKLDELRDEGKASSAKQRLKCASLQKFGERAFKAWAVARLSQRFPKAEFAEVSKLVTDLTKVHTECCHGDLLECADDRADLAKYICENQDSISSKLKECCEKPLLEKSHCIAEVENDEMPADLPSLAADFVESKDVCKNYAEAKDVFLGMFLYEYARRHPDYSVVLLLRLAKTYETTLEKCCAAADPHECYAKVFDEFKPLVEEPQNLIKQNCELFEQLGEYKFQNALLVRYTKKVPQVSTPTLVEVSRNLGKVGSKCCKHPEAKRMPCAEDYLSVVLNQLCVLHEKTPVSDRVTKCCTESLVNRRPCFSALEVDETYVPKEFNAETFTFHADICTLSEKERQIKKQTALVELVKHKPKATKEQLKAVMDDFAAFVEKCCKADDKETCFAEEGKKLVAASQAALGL
T1 sequence (Q04609 whole entry): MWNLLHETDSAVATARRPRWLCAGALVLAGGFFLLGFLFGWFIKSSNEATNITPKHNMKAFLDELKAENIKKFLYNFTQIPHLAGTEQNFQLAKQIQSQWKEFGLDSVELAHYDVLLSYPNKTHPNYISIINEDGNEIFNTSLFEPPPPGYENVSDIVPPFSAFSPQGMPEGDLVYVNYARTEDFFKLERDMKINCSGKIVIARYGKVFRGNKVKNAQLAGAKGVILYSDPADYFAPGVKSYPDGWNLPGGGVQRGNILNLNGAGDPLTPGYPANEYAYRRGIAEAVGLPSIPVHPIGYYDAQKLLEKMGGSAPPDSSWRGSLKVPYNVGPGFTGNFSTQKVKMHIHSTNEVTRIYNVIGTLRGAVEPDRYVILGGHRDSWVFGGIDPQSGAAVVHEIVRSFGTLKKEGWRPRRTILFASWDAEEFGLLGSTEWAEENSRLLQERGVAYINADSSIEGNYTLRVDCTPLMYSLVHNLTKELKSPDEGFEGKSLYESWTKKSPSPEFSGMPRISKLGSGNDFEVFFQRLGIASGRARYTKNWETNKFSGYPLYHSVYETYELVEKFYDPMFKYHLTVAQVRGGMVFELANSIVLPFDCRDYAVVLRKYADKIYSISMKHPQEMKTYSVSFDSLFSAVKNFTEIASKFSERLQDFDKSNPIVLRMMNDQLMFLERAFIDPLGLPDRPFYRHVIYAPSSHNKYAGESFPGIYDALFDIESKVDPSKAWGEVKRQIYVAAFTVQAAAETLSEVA

As to `O=C(O)CC[C@H](NC(=O)N[C@@H](CCCCNC(=O)[C@@H](CCC(=O)NCCCC[C@@H](NC(=O)N[C@H](CCC(=O)O)C(=O)O)C(=O)O)NC(=O)CN1CCN(CC(=O)O)CCN(CC(=O)O)CCN(CC(=O)O)CC1)C(=O)O)C(=O)O` [[^68Ga]Ga-DOTA-(2P-PEG0), metal not drawn], in the data set with PC-3 PIP tumor [1] (^68Ga-labeled, PET/CT at 0.5/1/2/5 h after injection), the “tumor uptake on PET/CT imaging” value is listed as “began to decline at 2 h after injection”. This molecule registered an IC50 on PSMA (PC-3 PIP cells) of 455 nM. Also, the “radiochemical purity (PBS) at 2 h” value in data set [2] turned out to be 95.78%. For the same molecule, the “radiochemical purity (FBS) at 2 h” value in data set [3] turned out to be 95.21%. Moreover, in the data set on PC-3 PIP tumor [4], the “2 h blood uptake value” is on record as 2.78 ± 1.80 ID%/g. Further, in data set [5], the logP is -2.84. For the same molecule, the “albumin-binding rate (0.5 h)” value at human albumin (0.5 h) turned out to be 54.84%. Moreover, the “albumin-binding rate (2 h)” value at human albumin (2 h) came to 54.29%. Also, the “uptake rate after co-incubation with PSMA inhibitor 2-PMPA” value in the data set with PC-3 PIP cells (PC-3 PIP cells blocked by 2-PMPA, uptake at one hour (Figure 3C)) was 1.00 ± 0.16%. Also, the “2 h cellular uptake rate” value in the data set with PC-3 PIP cells (PC-3 PIP cells, 2 h, ^68Ga-labeled) was found to be 8.39 ± 3.65%.

In the case of `O=C(O)CC[C@H](NC(=O)N[C@@H](CCCCNC(=O)[C@H](Cc1ccc2ccccc2c1)NC(=O)[C@H]1CC[C@H](CNC(=O)CN2CCN(CC(=O)O)CCN(CC(=O)O)CCN(CC(=O)O)CC2)CC1)C(=O)O)C(=O)O` [[^177Lu]Lu-PSMA-617, metal not drawn, reference compound], the “kidney uptake on SPECT/CT imaging at 6 h” value in the data set on PC-3 PIP tumor [1] (^177Lu-labeled, SPECT/CT, 6 h after injection) is reported as “detectable kidney uptake at 6 h”.

In general, IC50 refers to the concentration at which inhibition is half-maximal. Read a low IC50 as higher potency. As usually defined, the logP is the decadic logarithm of the partition coefficient of the neutral form, usually between octanol and water. Read a high logP as a more lipophilic compound.
